Experimental data reported in PubChem BioAssay (NCI).
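Test compounds were applied to cells in 96-well plates for 48 hours at 5 doses. GI50 is the concentration that inhibits growth by half. The concentration for full growth arrest is given as TGI.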

How the values were obtained:
Test in all cases: inhibition of tumour cell growth, NCI panel, 48 h
786-0 renal = test system: 786-0 renal
A498 renal = test system: A498 renal
A549 NSCLC = test system: A549 NSCLC
ACHN renal = test system: ACHN renal
CAKI-1 renal = test system: CAKI-1 renal
CCRF-CEM leukemia = test system: CCRF-CEM leukemia
DLD-1 colon = test system: DLD-1 colon
DMS 114 small cell lung = test system: DMS 114 small cell lung
DMS 273 small cell lung = test system: DMS 273 small cell lung
EKVX NSCLC = test system: EKVX NSCLC
HCC-2998 colon = test system: HCC-2998 colon
HCT-116 colon = test system: HCT-116 colon
HCT-15 colon = test system: HCT-15 colon
HL-60(TB) leukemia = test system: HL-60(TB) leukemia
HOP-62 NSCLC = test system: HOP-62 NSCLC
HT29 colon = test system: HT29 colon
IGROV1 ovarian = test system: IGROV1 ovarian
K-562 leukemia = test system: K-562 leukemia
KM12 colon = test system: KM12 colon
KM20L2 colon = test system: KM20L2 colon
LOX IMVI melanoma = test system: LOX IMVI melanoma
LXFL 529 NSCLC = test system: LXFL 529 NSCLC
M14 melanoma = test system: M14 melanoma
M19-MEL melanoma = test system: M19-MEL melanoma
MALME-3M melanoma = test system: MALME-3M melanoma
MOLT-4 leukemia = test system: MOLT-4 leukemia
NCI-H226 lung = test system: NCI-H226 lung
NCI-H23 lung = test system: NCI-H23 lung
NCI-H460 lung = test system: NCI-H460 lung
NCI-H522 lung = test system: NCI-H522 lung
OVCAR-3 ovarian = test system: OVCAR-3 ovarian
OVCAR-4 ovarian = test system: OVCAR-4 ovarian
OVCAR-8 ovarian = test system: OVCAR-8 ovarian
RPMI-8226 leukemia = test system: RPMI-8226 leukemia
RXF 393 renal = test system: RXF 393 renal
SF-268 CNS = test system: SF-268 CNS
SF-295 CNS = test system: SF-295 CNS
SF-539 CNS = test system: SF-539 CNS
SK-MEL-2 melanoma = test system: SK-MEL-2 melanoma
SK-MEL-28 melanoma = test system: SK-MEL-28 melanoma
SK-MEL-5 melanoma = test system: SK-MEL-5 melanoma
SK-OV-3 ovarian = test system: SK-OV-3 ovarian
SN12C renal = test system: SN12C renal
SNB-19 CNS = test system: SNB-19 CNS
SNB-75 CNS = test system: SNB-75 CNS
SW-620 colon = test system: SW-620 colon
U251 CNS = test system: U251 CNS
UACC-257 melanoma = test system: UACC-257 melanoma
UACC-62 melanoma = test system: UACC-62 melanoma
UO-31 renal = test system: UO-31 renal

SMILES: O=C(/C=C/c1ccc(Cl)cc1)c1ccc(Cl)c(Cl)c1
- TGI (786-0 renal): > 100 µM
- TGI (A498 renal): > 100 µM
- TGI (A549 NSCLC): > 100 µM
- TGI (ACHN renal): > 100 µM
- TGI (CAKI-1 renal): 53.1 µM
- TGI (CCRF-CEM leukemia): 50.5 µM
- TGI (DLD-1 colon): > 100 µM
- TGI (DMS 114 small cell lung): > 100 µM
- TGI (DMS 273 small cell lung): > 100 µM
- TGI (EKVX NSCLC): 87.2 µM
- TGI (HCC-2998 colon): > 100 µM
- TGI (HCT-116 colon): > 100 µM
- TGI (HCT-15 colon): > 100 µM
- GI50 (HL-60(TB) leukemia): 15.9 µM
- TGI (HL-60(TB) leukemia): 45.8 µM
- TGI (HOP-62 NSCLC): 53.9 µM
- TGI (HT29 colon): > 100 µM
- TGI (IGROV1 ovarian): 79.9 µM
- TGI (K-562 leukemia): > 100 µM
- GI50 (KM12 colon): 12.2 µM
- TGI (KM12 colon): > 100 µM
- TGI (KM20L2 colon): > 100 µM
- TGI (LOX IMVI melanoma): > 100 µM
- TGI (LXFL 529 NSCLC): 92.5 µM
- TGI (M14 melanoma): > 100 µM
- TGI (M19-MEL melanoma): > 100 µM
- TGI (MALME-3M melanoma): 62.4 µM
- TGI (MOLT-4 leukemia): 69.6 µM
- TGI (NCI-H226 lung): 34.9 µM
- TGI (NCI-H23 lung): 30.2 µM
- TGI (NCI-H460 lung): > 100 µM
- TGI (NCI-H522 lung): 42.9 µM
- TGI (OVCAR-3 ovarian): 48.3 µM
- TGI (OVCAR-4 ovarian): > 100 µM
- TGI (OVCAR-8 ovarian): 47.9 µM
- TGI (RPMI-8226 leukemia): 8.88 µM
- TGI (RXF 393 renal): 72.2 µM
- TGI (SF-268 CNS): > 100 µM
- TGI (SF-295 CNS): > 100 µM
- TGI (SF-539 CNS): 56.9 µM
- TGI (SK-MEL-2 melanoma): 47.8 µM
- TGI (SK-MEL-28 melanoma): 66.7 µM
- TGI (SK-MEL-5 melanoma): 68.7 µM
- TGI (SK-OV-3 ovarian): 85.9 µM
- GI50 (SN12C renal): 48 µM
- TGI (SN12C renal): > 100 µM
- TGI (SNB-19 CNS): 75.5 µM
- TGI (SNB-75 CNS): 61.5 µM
- GI50 (SW-620 colon): 19.6 µM
- TGI (SW-620 colon): > 100 µM
- TGI (U251 CNS): 44.5 µM
- TGI (UACC-257 melanoma): 98.8 µM
- TGI (UACC-62 melanoma): 70 µM
- TGI (UO-31 renal): 80.9 µM
